Where a name gives a salt, the structure may show the parent alone.

This assay addresses T1, human TRPC6 (Homo sapiens, UniProt Q9Y210).
T1 construct: expressed in transfected cells
T1 sequence (Q9Y210 1-931): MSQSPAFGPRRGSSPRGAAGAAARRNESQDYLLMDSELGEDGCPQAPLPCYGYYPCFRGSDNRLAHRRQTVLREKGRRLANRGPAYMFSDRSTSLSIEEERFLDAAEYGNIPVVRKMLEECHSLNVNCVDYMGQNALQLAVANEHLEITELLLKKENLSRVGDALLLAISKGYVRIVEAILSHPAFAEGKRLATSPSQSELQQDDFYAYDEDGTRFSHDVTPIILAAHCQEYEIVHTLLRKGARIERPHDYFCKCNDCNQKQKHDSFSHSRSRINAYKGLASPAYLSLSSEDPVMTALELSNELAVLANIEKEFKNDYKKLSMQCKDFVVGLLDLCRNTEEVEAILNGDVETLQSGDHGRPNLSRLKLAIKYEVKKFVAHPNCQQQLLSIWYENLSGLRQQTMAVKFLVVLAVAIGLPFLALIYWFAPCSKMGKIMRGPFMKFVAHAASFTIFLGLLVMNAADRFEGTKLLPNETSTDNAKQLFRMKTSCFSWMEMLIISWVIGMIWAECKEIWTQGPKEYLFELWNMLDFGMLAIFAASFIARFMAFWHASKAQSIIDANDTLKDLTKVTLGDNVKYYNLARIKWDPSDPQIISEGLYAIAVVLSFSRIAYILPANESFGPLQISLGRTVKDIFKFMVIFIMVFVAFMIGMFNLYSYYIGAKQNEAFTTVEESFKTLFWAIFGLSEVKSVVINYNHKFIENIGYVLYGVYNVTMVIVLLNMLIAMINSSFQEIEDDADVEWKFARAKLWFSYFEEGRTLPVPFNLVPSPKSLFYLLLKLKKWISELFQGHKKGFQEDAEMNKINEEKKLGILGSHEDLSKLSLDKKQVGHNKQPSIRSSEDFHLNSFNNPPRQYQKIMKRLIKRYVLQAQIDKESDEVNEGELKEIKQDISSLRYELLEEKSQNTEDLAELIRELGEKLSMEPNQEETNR
Nature of the assay: TRPC6 calcium flux assay (FLIPR, OAG-stimulated calcium influx). Type of assay: cell-based. Particulars: HEK293 cells stably transfected with human TRPC6, read-out: hTRPC6 Potency. The procedure, abridged: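 IC50 derived by plotting background-corrected peak fluorescence (180 s window, normalized to OAG-triggered signal vs buffer) against dose. Stable human TRPC6 HEK293 line was dye-loaded, exposed to compound 25 min, then challenged with 50 uM final OAG in 2 mM Ca2+ HEPES buffer pH 7.2, 0.5% DMSO.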
As to `COc1ccc2nc(N3CC[C@@H](F)[C@H](N)C3)n(Cc3ccc(C#N)cn3)c2c1` [Example 146, 6-((2-((3R,4R)-3-amino-4-fluoropiperidin-1-yl)-6-methoxy-1H-benzo[d]imidazol-1-yl)methyl)nicotinonitrile hydrochloride], the IC50 turned out to be 0.631 nM. Next, `COc1ccc2nc(N3CC[C@H](F)[C@H](N)C3)n(Cc3ccc(C#N)cn3)c2c1` [Example 147, 6-((2-((3R,4S)-3-amino-4-fluoropiperidin-1-yl)-6-methoxy-1H-benzo[d]imidazol-1-yl)methyl)nicotinonitrile hydrochloride]: 0.433 nM; `COc1ccc2c(c1)nc(N1CC[C@H](F)[C@H](N)C1)n2Cc1ccc(C#N)cn1` [Example 148, 6-((2-((3R,4S)-3-amino-4-fluoropiperidin-1-yl)-5-methoxy-1H-benzo[d]imidazol-1-yl)methyl)nicotinonitrile hydrochloride]: 11.8 nM.

Regarding `N#Cc1cc(F)cc2c1nc(N1CC[C@H](F)[C@H](N)C1)n2Cc1ncc(Cl)cn1` [Example 149, 2-((3R,4S)-3-amino-4-fluoropiperidin-1-yl)-1-((5-chloropyrimidin-2-yl)methyl)-6-fluoro-1H-benzo[d]imidazole-4-carbonitrile], the IC50 is 1.09 nM. Next, `N#Cc1cc(F)cc2nc(N3CCC(F)(F)[C@H](N)C3)n(Cc3ncc(Cl)cn3)c12` [Example 150, (R)-2-(3-amino-4,4-difluoropiperidin-1-yl)-1-((5-chloropyrimidin-2-yl)methyl)-5-fluoro-1H-benzo[d]imidazole-7-carbonitrile]: 9.02 nM; `N#Cc1cc(F)cc2c1nc(N1CCC(F)(F)[C@H](N)C1)n2Cc1ncc(Cl)cn1` [Example 151, (R)-2-(3-amino-4,4-difluoropiperidin-1-yl)-1-((5-chloropyrimidin-2-yl)methyl)-6-fluoro-1H-benzo[d]imidazole-4-carbonitrile]: 6.06 nM; `N#Cc1ccc(Cn2c(N3CC[C@@H](O)[C@H](N)C3)nc3ccc(Cl)cc32)nc1` [Example 152, 6-((2-((3R,4R)-3-amino-4-hydroxypiperidin-1-yl)-6-chloro-1H-benzo[d]imidazol-1-yl)methyl)nicotinonitrile]: 67.7 nM.

With `N#Cc1ccc(Cn2c(N3CC[C@H](O)[C@H](N)C3)nc3ccc(Cl)cc32)nc1` [Example 153, 6-((2-((3R,4S)-3-amino-4-hydroxypiperidin-1-yl)-6-chloro-1H-benzo[d]imidazol-1-yl)methyl)nicotinonitrile], the IC50 was determined as 72 nM. Regarding `N#Cc1ccc(Cn2c(N3CCC(F)(F)[C@H](N)C3)nc3ccccc32)cc1` [Example 154, (R)-4-((2-(3-amino-4,4-difluoropiperidin-1-yl)-1H-benzo[d]imidazol-1-yl)methyl)benzonitrile], the IC50 came out at 3.06 nM. In the case of `N#Cc1ccc(Cn2c(N3CC[C@@H](F)[C@H](N)C3)nc3cc(F)cc(F)c32)cc1` [Example 156], the IC50 stood at 61.7 nM. Next, `N#Cc1ccc(Cn2c(N3CC[C@@H](F)[C@H](N)C3)nc3c(F)cc(F)cc32)cc1` [Example 157, 4-((2-((3R,4R)-3-amino-4-fluoro-1-piperidinyl)-4,6-difluoro-1H-benzimidazol-1-yl)methyl)benzonitrile]: 0.501 nM; `N#Cc1ccc(Cn2c(N3CC[C@@H](F)[C@H](N)C3)nc3ccc(C#N)cc32)cc1` [Example 158, 2-((3R,4R)-3-amino-4-fluoro-1-piperidinyl)-1-(4-cyanobenzyl)-1H-benzimidazole-6-carbonitrile]: 4.71 nM; `N#Cc1ccc(Cn2c(N3CC[C@@H](F)[C@H](N)C3)nc3cc(C#N)ccc32)cc1` [Example 159, 2-((3R,4R)-3-amino-4-fluoro-1-piperidinyl)-1-(4-cyanobenzyl)-1H-benzimidazole-5-carbonitrile]: 16.4 nM.

As for `N#Cc1ccc(Cn2c(N3CCC(F)(F)[C@H](N)C3)nc3ccc(C#N)cc32)cc1` [Example 160, 2-((3R)-3-amino-4,4-difluoro-1-piperidinyl)-1-(4-cyanobenzyl)-1H-benzimidazole-6-carbonitrile], the IC50 is 14.2 nM.

As to `N#Cc1ccc(Cn2c(N3CCC(F)(F)[C@H](N)C3)nc3cc(C#N)ccc32)cc1` [Example 161, 2-((3R)-3-amino-4,4-difluoro-1-piperidinyl)-1-(4-cyanobenzyl)-1H-benzimidazole-5-carbonitrile], the IC50 worked out at 133 nM. Next, `N#Cc1ccc(Cn2c(N3CCC[C@@H](N)C3)nc3ccccc32)cc1` [Example 162, (R)-4-((2-(3-aminopiperidin-1-yl)-1H-benzo[d]imidazol-1-yl)methyl)benzonitrile]: 257 nM; `C[C@@H]1CCN(c2nc3ccccc3n2Cc2ccc(C#N)cc2)C[C@@H]1N` [Example 163, 4-((2-((3R,4R)-3-amino-4-methylpiperidin-1-yl)-1H-benzo[d]imidazol-1-yl)methyl)benzonitrile]: 2840 nM.

On to `N#Cc1ccc(Cn2c(N3CC[C@H](N)C3)nc3ccccc32)cc1` [Example 166, (S)-4-((2-(3-aminopyrrolidin-1-yl)-1H-benzo[d]imidazol-1-yl)methyl)benzonitrile], for which the IC50 turned out to be 560 nM.

Take `N#Cc1ccc(Cn2c(N3CCC[C@H](N)C3)nc3ccccc32)cc1` [Example 167, (S)-4-((2-(3-aminopiperidin-1-yl)-1H-benzo[d]imidazol-1-yl)methyl)benzonitrile]: the IC50 was 1.97 nM. On to `N#Cc1ccc(Cn2c(N3CCC4(CCCC4N)C3)nc3ccccc32)cc1` (stereo not drawn) [Example 168, 4-((2-(6-amino-2-azaspiro[4.4]nonan-2-yl)-1H-benzo[d]imidazol-1-yl)methyl)benzonitrile], for which the IC50 came to 1600 nM.

As for `N#Cc1ccc(Cn2c(N3CC4CCC(N)C4C3)nc3ccccc32)cc1` (stereo not drawn) [Example 169, 4-((2-(4-aminohexahydrocyclopenta[c]pyrrol-2(1H)-yl)-1H-benzo[d]imidazol-1-yl)methyl)benzonitrile], the IC50 turned out to be 14.2 nM. Next, `N#Cc1ccc(Cn2c(N3CC[C@H](F)[C@@H](N)C3)nc3ccccc32)cc1` [Example 170, 4-((2-((3S,4S)-3-amino-4-fluoropiperidin-1-yl)-1H-benzo[d]imidazol-1-yl)methyl)benzonitrile]: 25.9 nM. For `N#Cc1ccc(Cn2c(N3CC[C@@H](F)[C@@H](N)C3)nc3ccccc32)cc1` [Example 171, 4-((2-((3S,4R)-3-amino-4-fluoropiperidin-1-yl)-1H-benzo[d]imidazol-1-yl)methyl)benzonitrile], the IC50 worked out at 544 nM. Next, `N#Cc1ccc(Cn2c(N3CC[C@H](F)[C@H](N)C3)nc3ccccc32)cc1` [Example 172, 4-((2-((3R,4S)-3-amino-4-fluoropiperidin-1-yl)-1H-benzo[d]imidazol-1-yl)methyl)benzonitrile]: 2.22 nM; `N#Cc1ccc(Cn2c(N3CC[C@@H](F)[C@H](N)C3)nc3ccccc32)cc1` [Example 173, 4-((2-((3R,4R)-3-amino-4-fluoropiperidin-1-yl)-1H-benzo[d]imidazol-1-yl)methyl)benzonitrile]: 1.38 nM; `N#Cc1ccc(Cn2c(N3CC[C@@](F)(CN)C3)nc3ccccc32)cc1` [Example 174, (R)-4-((2-(3-(aminomethyl)-3-fluoropyrrolidin-1-yl)-1H-benzo[d]imidazol-1-yl)methyl)benzonitrile 2,2,2-trifluoroacetate]: 564 nM. Regarding `N#Cc1ccc(Cn2c(N3CC[C@](F)(CN)C3)nc3ccccc32)cc1` [Example 175, (S)-4-((2-(3-(aminomethyl)-3-fluoropyrrolidin-1-yl)-1H-benzo[d]imidazol-1-yl)methyl)benzonitrile 2,2,2-trifluoroacetate], the IC50 was 1700 nM.

For the compound `N#Cc1ccc(Cn2c(N3CC[C@@](O)(CN)C3)nc3ccccc32)cc1` [Example 176, (R)-4-((2-(3-(aminomethyl)-3-hydroxypyrrolidin-1-yl)-1H-benzo[d]imidazol-1-yl)methyl)benzonitrile 2,2,2-trifluoroacetate], the IC50 amounted to 2330 nM. For the compound `N#Cc1ccc(Cn2c(N3CC[C@](O)(CN)C3)nc3ccccc32)cc1` [Example 177, (S)-4-((2-(3-(aminomethyl)-3-hydroxypyrrolidin-1-yl)-1H-benzo[d]imidazol-1-yl)methyl)benzonitrile 2,2,2-trifluoroacetate], the IC50 was 1540 nM. Next, `N#Cc1ccc(Cn2c(N3CC[C@@H](CN)C3)nc3ccccc32)cc1` [Example 178, (S)-4-((2-(3-(aminomethyl)pyrrolidin-1-yl)-1H-benzo[d]imidazol-1-yl)methyl)benzonitrile]: 47.1 nM.
